Laboratory results taken from patent publication US8530663B2, “1-(2-phenoxymethylheteroaryl)piperidine and piperazine compounds” (Theravance, Inc., priority 2010, dated 2013).
Marks after values point to notes of the source that are not given here.

How the values were obtained:
hSERT [1] = target: T1, hSERT (Homo sapiens, UniProt P31645); assay: hSERT membrane radioligand binding assay (3H-citalopram); details: hSERT membranes, 1.0 nM 3H-citalopram; for Ki: read-out: SERT pKi (converted)
T1 construct: expressed in transfected cells; host or cells: HEK-293
Description: (§1) Membrane radioligand binding assays were used to measure inhibition of labeled ligand (^3H-citalopram or ^3H-nisoxetine or ^3H-WIN35428) binding to membranes prepared from cells expressing the respective human recombinant transporter (hSERT or hNET or hDAT) in order to determine the pKi values of test compounds at the transporters.
(§2) Recombinant human embryonic kidney (HEK-293) derived cell lines stably transfected with hSERT or hNET, respectively, were grown in DMEM medium supplemented with 10% dialyzed FBS (for hSERT) or FBS (for hNET), 100 μg/ml penicillin, 100 μg/ml streptomycin, 2 mM L-glutamine and 250 μg/ml of the aminoglycoside antibiotic G418, in a 5% CO2 humidified incubator at 37° C. When cultures reached 80% confluence, the cells were washed thoroughly in PBS (without Ca^2+ and Mg^2+) and lifted with 5 mM EDTA in PBS. Cells were pelleted by centrifugation, resuspended in lysis buffer (10 mM Tris-HCl, pH7.5 containing 1 mM EDTA), homogenized, pelleted by centrifugation, then resuspended in 50 mM Tris-HCl, pH 7.5 and 10% sucrose at 4° C. Protein concentration of the membrane suspension was determined using a Bio-Rad Bradford Protein Assay kit. Membranes were snap frozen and stored at −80° C. Chinese hamster ovary membranes expressing hDAT (CHO-DAT) were purchased from PerkinElmer and stored at −80° C.
(§3) Binding assays were performed in a 96-well assay plate in a total volume of 200 μL assay buffer (50 mM Tris-HCl, 120 mM NaCl, 5 mM KCl, pH 7.4) with 0.5, 1, and 3 μg membrane protein, for SERT, NET and DAT, respectively.
(§4) Stock solutions (10 mM in DMSO) of test compound were prepared and serial dilutions made using Dilution Buffer (50 mM Tris-HCl, 120 mM NaCl, 5 mM KCl, pH 7.4, 0.1% BSA, 400 μM ascorbic acid).
(§5) Following a 60 minute incubation at 22° C. (or a period sufficient to reach equilibrium), the membranes were harvested by rapid filtration over a 96-well UniFilter GF/B plate, pretreated with 0.3% polyethyleneimine, and washed 6 times with 300 μl wash buffer (50 mM Tris-HCl, 0.9% NaCl, pH 7.5 at 4° C.). Plates were dried overnight at room temperature, ˜45 μl of MicroScint™-20 (Perkin Elmer) added and bound radioactivity quantitated via liquid scintillation spectroscopy. Inhibition curves and saturation isotherms were analyzed using GraphPad Prism Software package (GraphPad Software, Inc., San Diego, Calif.). IC50 values were generated from concentration response curves using the Sigmoidal Dose Response (variable slope) algorithm in Prism GraphPad. Kd and Bmax values for the radioligand were generated from saturation isotherms using the Saturation Binding Global Fit algorithm in Prism GraphPad. pKi (negative decadic logarithm of Ki) values for test compounds were calculated from the best-fit IC50 values, and the Kd value of the radioligand, using the Cheng-Prusoff equation (Cheng & Prusoff (1973) Biochem. Pharmacol. 22(23):3099-3108): Ki=IC50/(1+[L]/Kd), where [L]=concentration radioligand.

hNET [2] = target: T2, hNET (Homo sapiens, UniProt P23975); assay: fluorescence-based norepinephrine reuptake assay (Tsuruda et al. 2010; data with asterisk); assay type: cell-based; details: norepinephrine reuptake inhibition, fluorescence-based assay (data indicated by an asterisk); for IC50: read-out: NET pIC50 (converted)
T2 construct: expressed in transfected cells; host or cells: HEK-293

hNET [3] = target: T2, hNET; assay: hNET membrane radioligand binding assay (3H-nisoxetine); details: hNET membranes, 1.0 nM 3H-nisoxetine; for Ki: read-out: NET pKi (converted)
Description: as §1, §2, §3, §4, §5

hSERT [4] = target: T1, hSERT; assay: fluorescence-based serotonin reuptake assay (Tsuruda et al. 2010; data with asterisk); assay type: cell-based; details: serotonin reuptake inhibition, fluorescence-based assay (data indicated by an asterisk); for IC50: read-out: SERT pIC50 (converted)
hNET [5] = target: T2, hNET; assay: hNET neurotransmitter uptake assay (3H-NE); assay type: cell-based; details: norepinephrine reuptake inhibition, 3H-NE uptake, HEK-293 hNET cells (no asterisk); for IC50: read-out: NET pIC50 (converted)
Description: (§6) Neurotransmitter uptake assays were used to measure inhibition of ^3H-serotonin (^3H-5-HT), ^3H-norepinephrine (^3H-NE), and ^3H-dopamine (^3H-DA) uptake into cells expressing the respective transporter (hSERT, hNET or hDAT) in order to determine the pIC50 values of test compounds at the transporters.
(§7) HEK-293 derived cell lines stably-transfected with hSERT, hNET, or hDAT, respectively, were grown in DMEM medium supplemented with 10% dialyzed FBS (for hSERT) or FBS (for hNET and hDAT), 100 μg/ml penicillin, 100 μg/ml streptomycin, 2 mM L-glutamine and 250 μg/ml of the aminoglycoside antibiotic G418 (for hSERT and hNET) or 800 ug/ml (for hDAT), in a 5% CO2 humidified incubator at 37° C. When cultures reached 80% confluence, the cells were washed thoroughly in PBS (without Ca^2+ and Mg^2+) and lifted with 5 mM EDTA in PBS. Cells were harvested by centrifugation at 1100 rpm for 5 minutes, washed once by resuspension in PBS, then centrifuged. The supernatant was discarded and the cell pellet resuspended, by gentle trituration, in room temperature Krebs-Ringer bicarbonate buffer containing HEPES (10 mM), CaCl2 (2.2 mM), ascorbic acid (200 μM) and pargyline (200 μM), pH 7.4. The final concentration of cells in the cell suspension was 7.5×10^4 cells/ml, 1.25×10^5 cells/ml, and 5.0×10^4 cells/ml for SERT, NET, and DAT cell lines, respectively.
(§8) Stock solutions (10 mM in DMSO) of test compound were prepared and serial dilutions prepared using 50 mM Tris-HCl, 120 mM NaCl, 5 mM KCl, pH 7.4, 0.1% BSA, 400 μM ascorbic acid. Test compounds were incubated for 30 minutes at 37° C. with the respective cells, prior to addition of radiolabeled neurotransmitter, ^3H-5-HT (20 nM final concentration), ^3H-NE (50 nM final concentration), or ^3H-DA (100 nM final concentration).
(§9) Following a 10 minute incubation, at 37° C., with radioligand, the cells were harvested by rapid filtration over a 96-well UniFilter GF/B plate, pretreated with 1% BSA, and washed 6 times with 650 μl wash buffer (ice cold PBS). Plates were dried overnight at 37° C., ˜45 μl of MicroScint™-20 (Perkin Elmer) added and incorporated radioactivity quantitated via liquid scintillation spectroscopy. Inhibition curves were analyzed using GraphPad Prism Software package (GraphPad Software, Inc., San Diego, Calif.). IC50 values were generated from concentration response curves using the Sigmoidal Dose Response (variable slope) algorithm in Prism GraphPad.

hSERT [6] = target: T1, hSERT; assay: hSERT neurotransmitter uptake assay (3H-5-HT); assay type: cell-based; details: serotonin reuptake inhibition, 3H-5-HT uptake, HEK-293 hSERT cells (no asterisk); for IC50: read-out: SERT pIC50 (converted)
Description: as §6, §7, §8, §9

T2 sequence (P23975 whole entry): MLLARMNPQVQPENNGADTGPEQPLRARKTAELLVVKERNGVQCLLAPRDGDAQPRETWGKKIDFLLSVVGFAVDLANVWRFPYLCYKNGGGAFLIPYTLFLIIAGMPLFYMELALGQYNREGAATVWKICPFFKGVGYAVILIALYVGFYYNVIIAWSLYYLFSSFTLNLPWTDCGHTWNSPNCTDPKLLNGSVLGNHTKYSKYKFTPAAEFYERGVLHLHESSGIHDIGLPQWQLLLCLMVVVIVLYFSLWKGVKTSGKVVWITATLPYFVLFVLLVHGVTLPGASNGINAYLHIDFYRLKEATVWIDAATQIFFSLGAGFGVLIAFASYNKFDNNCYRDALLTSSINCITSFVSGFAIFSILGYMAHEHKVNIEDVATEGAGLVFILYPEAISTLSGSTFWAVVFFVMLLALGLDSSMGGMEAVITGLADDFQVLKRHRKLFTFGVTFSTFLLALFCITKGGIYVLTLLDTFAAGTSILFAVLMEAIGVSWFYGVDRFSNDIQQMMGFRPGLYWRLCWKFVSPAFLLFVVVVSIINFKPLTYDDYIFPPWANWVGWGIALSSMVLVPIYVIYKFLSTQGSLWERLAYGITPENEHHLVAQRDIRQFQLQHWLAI
T1 sequence (P31645 whole entry): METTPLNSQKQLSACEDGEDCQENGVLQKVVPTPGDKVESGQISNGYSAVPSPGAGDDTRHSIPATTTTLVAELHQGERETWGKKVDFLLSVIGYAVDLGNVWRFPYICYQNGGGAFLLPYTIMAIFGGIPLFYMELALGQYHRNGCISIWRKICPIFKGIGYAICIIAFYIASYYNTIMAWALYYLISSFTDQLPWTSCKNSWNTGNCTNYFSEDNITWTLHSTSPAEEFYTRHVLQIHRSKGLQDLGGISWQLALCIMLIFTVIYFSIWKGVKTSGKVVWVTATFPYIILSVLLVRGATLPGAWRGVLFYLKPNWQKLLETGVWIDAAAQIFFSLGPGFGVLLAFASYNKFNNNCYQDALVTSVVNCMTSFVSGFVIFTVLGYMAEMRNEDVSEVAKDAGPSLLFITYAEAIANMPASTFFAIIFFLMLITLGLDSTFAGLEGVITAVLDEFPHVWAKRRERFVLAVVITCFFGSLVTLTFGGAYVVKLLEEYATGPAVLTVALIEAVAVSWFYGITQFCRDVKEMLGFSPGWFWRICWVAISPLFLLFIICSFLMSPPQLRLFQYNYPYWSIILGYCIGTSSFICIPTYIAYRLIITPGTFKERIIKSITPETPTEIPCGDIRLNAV

SERT pKi (hSERT [1])	NET pIC50 (hNET [2])	NET pKi (hNET [3])	SERT pIC50 (hSERT [4])	Compound	also measured
≧7.0	–	≧7.0	–	Fc1cccc(Cl)c1OCc1ccncc1C1CCNCC1 [Example 10-4]	NET pIC50 (hNET [5]): ≧7.0; SERT pIC50 (hSERT [6]): ≧7.0
–	≧7.0*	–	≧7.0*	Clc1cccc(OCc2occc2C2CCNCC2)c1 [Example 18-2]	–
–	≧7.0*	–	≧6.0*	c1ccc(OCc2ccoc2C2CCNCC2)cc1 [Example 22-1]	–
≧7.0	≧7.0*	≧7.0	≧7.0*	Clc1cccc(OCc2ccsc2C2CCNCC2)c1 [Example 31-2]	–
≧7.0	≧7.0*	≧7.0	≧7.0*	Fc1cc(F)c(OCc2ccsc2C2CCNCC2)c(F)c1 [Example 31-3]	–

Second part, the compound before the results:

Compound	SERT pKi (hSERT [1])	NET pIC50 (hNET [2])	NET pKi (hNET [3])	SERT pIC50 (hSERT [4])	also measured
Fc1ccc(F)c(OCc2ncccc2C2CCNCC2)c1Cl [Example 2-9]	≧7.0	≧7.0*	≧6.0	≧7.0*	–
Fc1cc(F)c(OCc2ccncc2C2CCNCC2)c(F)c1 [Example 9, 4-(2,4,6-Trifluorophenoxymethyl)-1′,2′,3′,4′,5′,6′-hexahydro[3,4]bipyridinyl]	–	–	–	–	IC50 (hNET [5]): ≤ 100 nM; Ki (hSERT [1]): ≤ 100 nM; Ki (hNET [3]): ≤ 100 nM; IC50 (hSERT [6]): ≤ 100 nM
Fc1cc(F)c(OCc2cccnc2C2CCNCC2)c(F)c1 [Example 13, 3-(2,4,6-Trifluorophenoxymethyl)-1′,2′,3′,4′,5′,6′-hexahydro[2,4]bipyridinyl]	–	–	–	–	IC50 (hNET [5]): ≤ 100 nM; Ki (hSERT [1]): ≤ 100 nM; Ki (hNET [3]): ≤ 100 nM; IC50 (hSERT [6]): ≤ 100 nM
Clc1cccc(Cl)c1OCc1occc1C1CCNCC1 [Example 18-1]	–	≧4.5*	–	≧7.0*	–
Fc1cccc(F)c1OCc1occc1C1CCNCC1 [Example 18-3]	–	≧5.0*	–	≧6.0*	–
Clc1cccc(OCc2ccoc2C2CCNCC2)c1 [Example 21, 4-[3-(3-Chlorophenoxymethyl)furan-2-yl]piperidine]	–	–	–	–	IC50 (hNET [2]): ≤ 100 nM; IC50 (hSERT [4]): ≤ 100 nM
Fc1cccc(F)c1OCc1ccoc1C1CCNCC1 [Example 22-2]	–	≧6.0*	–	≧5.0*	–
Clc1cccc(OCc2sccc2C2CCNCC2)c1 [Example 24, 4-[2-(3-Chlorophenoxymethyl)thiophen-3-yl]piperidine]	–	–	–	–	Ki (hSERT [1]): ≤ 100 nM; IC50 (hNET [2]): ≤ 100 nM; Ki (hNET [3]): ≤ 100 nM; IC50 (hSERT [4]): ≤ 100 nM
Fc1cccc(F)c1OCc1cscc1C1CCNCC1 [Example 27, 4-[4-(2,6-Difluorophenoxymethyl)thiophen-3-yl]piperidine]	–	–	–	–	IC50 (hNET [5]): ≤ 100 nM; Ki (hSERT [1]): ≤ 100 nM; Ki (hNET [3]): ≤ 100 nM; IC50 (hSERT [6]): ≤ 100 nM
Fc1cc(F)c(OCc2cscc2C2CCNCC2)c(F)c1 [Example 28-3]	≧7.0	–	≧7.0	–	NET pIC50 (hNET [5]): ≧7.0; SERT pIC50 (hSERT [6]): ≧7.0
